The source of these data is patent US20250243203A1, “NICOTINAMIDE- AND BENZAMIDE-BASED COMPOUNDS, CONJUGATES, AND COMPOSITIONS AS INHIBITORS OF TRANSLATIONAL- AND TRANSCRIPTIONAL-RELATED KINASES” (PURDUE RESEARCH FOUNDATION, priority 2022, published 2025).

The structures appear in SMILES notation. pIC50, pKd: −log10 of the molar value. Read-outs that look alike come from different tables or passages of the source.

The target in one test is p70S6K (Homo sapiens, UniProt P23443). Description: p70S6K inhibition, in vitro studies at Reaction Biology Corporation. In kind it is biochemical. The note with it: 25 nM compound, [ATP]=10 uM. On the procedure:
The nature of the substituent on the imidazo[1,2-b]pyridazine moiety at position-6 was evaluated in in vitro studies performed at Reaction Biology Corporation (Malvern, PA). The results indicated the specific substituent dramatically affected the inhibition of p70S6K.

The next test has as its target MNK2 (Homo sapiens, UniProt Q9HBH9). Description: MNK2 inhibition, in vitro studies at Reaction Biology Corporation. Particulars: 50 nM compound, 10 uM ATP. In kind it is biochemical.
For test [1], the target named is T1, AXL receptor tyrosine kinase (AXL) (Homo sapiens, UniProt P30530).
T1 construct: purchased Eurofins DiscoverX (KINOMEscan service)
T1 sequence (P30530 26-894): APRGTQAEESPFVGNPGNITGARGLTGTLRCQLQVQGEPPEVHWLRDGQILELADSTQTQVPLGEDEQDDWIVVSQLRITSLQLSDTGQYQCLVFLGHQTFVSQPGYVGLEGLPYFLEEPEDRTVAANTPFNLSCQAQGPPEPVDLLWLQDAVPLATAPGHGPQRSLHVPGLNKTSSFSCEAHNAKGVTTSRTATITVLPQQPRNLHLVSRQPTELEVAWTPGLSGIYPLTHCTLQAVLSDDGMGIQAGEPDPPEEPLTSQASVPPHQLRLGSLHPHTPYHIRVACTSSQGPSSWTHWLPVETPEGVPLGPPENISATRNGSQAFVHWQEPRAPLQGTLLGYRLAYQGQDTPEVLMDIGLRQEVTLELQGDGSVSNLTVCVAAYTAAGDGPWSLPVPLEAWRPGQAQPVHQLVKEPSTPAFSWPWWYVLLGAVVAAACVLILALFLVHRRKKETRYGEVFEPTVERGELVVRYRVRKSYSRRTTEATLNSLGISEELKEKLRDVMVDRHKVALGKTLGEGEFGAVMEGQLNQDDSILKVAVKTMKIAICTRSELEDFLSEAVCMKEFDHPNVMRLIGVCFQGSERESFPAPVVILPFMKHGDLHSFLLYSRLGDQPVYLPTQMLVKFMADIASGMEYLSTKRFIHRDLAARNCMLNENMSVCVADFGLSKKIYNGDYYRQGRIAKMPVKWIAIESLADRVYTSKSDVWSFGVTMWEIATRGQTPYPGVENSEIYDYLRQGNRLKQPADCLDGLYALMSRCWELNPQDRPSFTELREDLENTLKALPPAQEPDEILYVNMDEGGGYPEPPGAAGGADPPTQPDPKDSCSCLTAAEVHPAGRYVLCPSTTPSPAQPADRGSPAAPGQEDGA
As to the kind of experiment: KINOMEscan competition binding assay (Eurofins DiscoverX), AXL. On the procedure: The affinity of several compounds hereof having a substituent on the imidazo[1,2-b]pyridazine moiety at position-6, wherein the substituent comprised one or more ring moieties was evaluated with respect to two TAM kinases: AXL and MERTK. […] The assay uses DNA-tagged kinase, an immobilized ligand, and the test compound. Quantitative polymerase chain reaction (PCR) of the DNT tag was then used to measure the ability of the tested compound to displace the immobilized ligand.

A further test deals with Caki-1 (renal cancer). Description: Growth inhibition of Caki-1 (NCI-60 human tumor cell line screen). In kind it is cell-based. Particulars: 200 nM.
Test [2] deals with MDA-MB-231 (breast cancer). Description: Growth inhibition of MDA-MB-231 (NCI-60 human tumor cell line screen). In kind it is cell-based.
Another test concerns CT-26 C2 tumor cells. Description: CT-26 in vivo tumor reduction. Also on record: species or system BALB/c female mouse. The note with it: CT-26, day 17 from start of dosing, oral QD. The procedure: Each BALB/c female mouse was inoculated subcutaneously at the right flank with CT-26 C2 tumor cells (0.3×10^6/mouse) in 0.1 mL PBS for tumor development. Treatments for the efficacy study were started on day 10 after tumor inoculation when the average tumor size reached approximately 71 mm^3. Each group consisted of 6 tumor-bearing mice. Vehicle control was 25 mM citrate buffer (pH 2.5). HSND80 was dosed orally QD at 15 mg/Kg for 4 days and 10 mg/Kg afterwards. HSND100 was dosed at 15 mg/Kg. Mice were dosed 5 days on and 2 days off (drug holiday). Tumors were measured every other day (L, W, H) to give tumor volume in mm^3.

MNK2, sequence (Q9HBH9 whole entry): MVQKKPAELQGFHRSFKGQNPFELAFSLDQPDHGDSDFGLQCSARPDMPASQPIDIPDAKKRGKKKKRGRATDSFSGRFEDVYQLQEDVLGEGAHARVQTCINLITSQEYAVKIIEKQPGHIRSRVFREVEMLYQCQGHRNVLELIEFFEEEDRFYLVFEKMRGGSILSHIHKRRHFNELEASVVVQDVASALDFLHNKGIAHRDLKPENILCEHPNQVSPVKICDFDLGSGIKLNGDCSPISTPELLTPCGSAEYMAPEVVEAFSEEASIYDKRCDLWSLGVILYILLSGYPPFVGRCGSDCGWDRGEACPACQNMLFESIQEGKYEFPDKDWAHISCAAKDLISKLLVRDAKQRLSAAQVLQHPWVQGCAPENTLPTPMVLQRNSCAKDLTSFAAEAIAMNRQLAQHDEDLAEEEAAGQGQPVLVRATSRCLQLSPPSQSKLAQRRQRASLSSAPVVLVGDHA
p70S6K, sequence (P23443 whole entry): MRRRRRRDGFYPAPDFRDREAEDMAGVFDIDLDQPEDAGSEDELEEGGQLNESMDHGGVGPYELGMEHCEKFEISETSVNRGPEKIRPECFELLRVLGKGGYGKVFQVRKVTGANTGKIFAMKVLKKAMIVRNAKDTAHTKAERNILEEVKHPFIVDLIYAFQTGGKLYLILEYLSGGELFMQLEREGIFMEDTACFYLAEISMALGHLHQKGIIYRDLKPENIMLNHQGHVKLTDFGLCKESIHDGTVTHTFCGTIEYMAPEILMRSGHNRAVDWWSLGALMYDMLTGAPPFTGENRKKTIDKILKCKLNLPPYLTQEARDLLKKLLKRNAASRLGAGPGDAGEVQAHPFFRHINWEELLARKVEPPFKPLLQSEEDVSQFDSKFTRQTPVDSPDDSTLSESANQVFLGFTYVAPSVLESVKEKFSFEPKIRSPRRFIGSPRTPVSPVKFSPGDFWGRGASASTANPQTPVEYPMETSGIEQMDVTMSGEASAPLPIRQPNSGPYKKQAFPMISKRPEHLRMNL

As usually defined, the inhibition is the drop in the measured response relative to a control, in per cent. Higher therefore signals a response far below the control. What is called pKd is the Kd on a negative log10 scale, so that one unit is a factor of ten. For orientation: pIC50 means −log10 of the IC50, conventionally taken in molar units. Lower therefore signals a large IC50. Consider `C[C@@H]1CN(c2ccc3ncc(C#Cc4cncc(C(=O)Nc5ccc(CN6CCN(C)CC6)c(C(F)(F)F)c5)c4)n3n2)C[C@H](C)O1` [HSND80, 5-((6-((2S,6R)-2,6-Dimethylmorpholino)imidazo[1,2-b]pyridazin-3-yl)ethynyl)-N-(4-((4-methylpiperazin-1-yl)methyl)-3-(trifluoromethyl)phenyl)nicotinamide], for which the “inhibition of p70S6K” value against p70S6K turned out to be 97%. The inhibition at 0.05 µM on MNK2 is 96%. The pKd in test [1] (FIG. 6A, replicate 1, read-out: Kd AXL, replicate 1) was 9.11; in test [1] (FIG. 6B, replicate 2, read-out: Kd AXL, replicate 2), 8.89; in test [1] (Table 1, DiscoverX Eurofins, read-out: Kd AXL), 8.96. For the same compound, the inhibition at 0.2 µM (in the test on Caki-1 (renal cancer); in test [2] (200 nM)) was 100% in each case. Besides, the pIC50 in test [2] (72 hours) was 8.07. Besides, in the test with CT-26 C2 tumor cells, the “tumor reduction compared to vehicle control” value came out at 45%.
